One data set deals with H460 lung cancer cells. The experiment in a line: Alamar Blue proliferation assay with pair-wise miRNA combinations. Type of data set: cell-based, human. The source says:
miRNAs function in multiple pathways controlling multiple cellular processes. Cancer cells frequently show aberrations in several different pathways, which determine their oncogenic properties. […] The inventors assessed the efficacy of pair-wise miRNA combinations, administering hsa-miR-34a concurrently with either hsa-miR-124a, hsa-miR-126, hsa-miR-147, hsa-let-7b, hsa-let-7c or hsa-let-7g (Pre-miR™ miRNA, Ambion cat. no. AM17100). H460 lung cancer cells were transiently reverse-transfected in triplicate with each miRNA at a final concentration of 300 pM, resulting in 600 pM of total oligonucleotide. For negative controls, 600 pM of Pre-miR™ microRNA Precursor Molecule-Negative Control #2 (Ambion cat. no. AM17111) were used. To correlate the effect of various combinations with the effect of the sole miRNA, each miRNA at 300 pM was also combined with 300 pM negative control miRNA. Reverse transfection was carried out using the following parameters: 7,000 cells per 96 well, 0.15 μl Lipofectamine™ 2000 (Invitrogen) in 20 μl OptiMEM (Invitrogen), 100 μl total transfection volume. […] Cells were harvested 72 hours after transfection and subjected to Alamar Blue assays (Invitrogen). Percent proliferation values from the Alamar Blue assays were normalized to those obtained from cells treated with 600 pM negative control miRNA. Data are expressed as % proliferation relative to negative control miRNA-treated cells (Table 8, FIG. 3).
Additive activity of pair-wise combinations (e.g., hsa-miR-34a plus hsa-miR-147) is defined as an activity that is greater than the sole activity of each miRNA (e.g., the activity of hsa-miR-34a plus hsa-miR-147 is greater than that observed for hsa-miR-34a plus NC and the activity of hsa-miR-34a plus hsa-miR-147 is greater than that observed for hsa-miR-147 plus NC). Synergistic activity of pair-wise combinations is defined as an activity that is greater than the sum of the sole activity of each miRNA (e.g., the activity of hsa-miR-34a plus hsa-let-7g is greater than that observed for the sum of the activity of hsa-miR-34a plus NC and the activity of hsa-let-7g plus NC). […] The combinatorial use of miRNAs represents a potentially useful therapy for cancer and other diseases.
Background: Resazurin is reduced to fluorescent resorufin, in cell work by metabolically active cells.

Data set [1] relates to Du145 prostate cancer cells. The data set can be described thus: Long-term growth curve with repeated electroporation. The format is cell-based, human. The procedure: (§1) To evaluate the therapeutic activity of hsa-miR-34a over an extended period of time, we conducted growth curve experiments in the presence of miRNA for up to 22 days. Since in vitro transfections of naked interfering RNAs, such as synthetic miRNA, are transient by nature and compromised by the dilution of the oligo during ongoing cell divisions, miRNA was administered at multiple time points (Bartlett et al. 2006; Bartlett et al. 2007). To accommodate miRNA delivery into a large quantity of cells, the inventors employed the electroporation method to deliver hsa-miR-34a or negative control miRNA into PPC-1, PC3, and Du145 human prostate cancer cells. Briefly, 1×10^6 PPC-1 or PC3 cells, or 0.5×10^6 Du145 cells were electroporated with 1.6 μM hsa-miR-34a or negative control using the BioRad Gene Pulser Xcell™ instrument (BioRad Laboratories Inc., Hercules, Calif., USA), seeded and propagated in regular growth medium. Experiments with PC3 and Du145 cells were carried out in triplicates. When the control cells reached confluence (days 4 and 11 for PPC-1; days 7 and 14 for PC3 and Du145), cells were harvested, counted and electroporated again with the respective miRNAs. To ensure similar treatment of both conditions as well as to accommodate exponential growth, the cell numbers used for the second and third electroporation were titrated down to the lowest count. The population doubling was calculated from these electroporation events using the formula PD=ln(Nf/N0)/ln 2 and adjusting for the fact that approximately 72% of newly seeded cells adhere to the plate. Cell counts were extrapolated and plotted on a linear scale (FIG. 6). Arrows represent electroporation days. Standard deviations are included in the graphs.

Data set [2] has as its system PC3 prostate cancer cells. The description is as above. Type of data set: cell-based, human. As for the experimental part:
as §1

In data set [3] the test system is PPC-1 prostate cancer cells. The data set is described as above. Type of data set: cell-based, human. To be noted: by day 22; 1.6 μM electroporated repeatedly. The procedure: as §1
In data set [4] the test system is leukemic T cells (Jurkat). To be noted: cited from earlier work.

For the substance “hsa-miR-34a: synthetic miRNA; mature sequence UGGCAGUGUCUUAGCUGGUUGUU (MIMAT0000255; SEQ ID NO:1) (synthetic miRNA, chemistry not given here)”, the reduction of proliferation with H460 lung cancer cells (300 pM hsa-miR-34a plus 300 pM negative control miRNA) amounted to 0.42%. Further, in the data set on H460 lung cancer cells (each miRNA 300 pM (600 pM total), 72 h, normalized to 600 pM negative control miRNA), the “% proliferation” value is 99.58%. The “cells relative to cells electroporated with negative control miRNA” value in data set [1] (Du145, day 19) amounted to 6.9%; in data set [2] (PC3, day 21), 2.8%. Also, the “inhibition of Du145 cell growth” value in data set [1] (day 19, 1.6 μM electroporated repeatedly, relative to control cells (100%)) was determined as 93.1%. In addition, in data set [2] (day 21, 1.6 μM electroporated repeatedly, relative to control cells (100%)), the “inhibition of PC3 cell growth” value is listed as 97.2%. For the same substance, the “fate of PPC-1 cells in long-term culture” value in data set [3] is on record as “eliminated”. In addition, the proliferation result in data set [4] is listed as “inhibits the proliferation”.

Source of the values: patent US20090227533A1, “miR-34 Regulated Genes and Pathways as Targets for Therapeutic Intervention” (priority 2007, published 2009).
